How the values were obtained:
Experiment in all cases: relative viability (nuclei count vs DMSO), 5 days (fraction); higher = more cells survive
CAL-12T = system: CAL-12T
Method in brief: (§1)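 A single step with final 0.05% Triton X-100, 1% formaldehyde and 1 ug/ml Hoechst fixed the cells and stained nuclei 5 days after treatment. Lung cancer cell lines in 1536-well plates had been treated by pin tool the day after seeding with one drug alone or a fixed anchor-drug dose plus five library-drug doses (not always all listed) in √10 steps, and nuclei were counted on 4× images. Relative viability is the ratio of nuclei in treated wells to nuclei in vehicle wells, taken as the median of duplicate plates.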

COR-L 105 = system: COR-L 105
Method in brief: as §1

EMC-BAC-2 = system: EMC-BAC-2
Method in brief: as §1

H3255 = system: H3255
Method in brief: as §1

LC-2-ad = system: LC-2-ad
Method in brief: as §1

LK-2 = system: LK-2
Method in brief: as §1

NCI-H1395 = system: NCI-H1395
Method in brief: as §1

NCI-H1437 = system: NCI-H1437
Method in brief: as §1

NCI-H1651 = system: NCI-H1651
Method in brief: as §1

NCI-H1755 = system: NCI-H1755
Method in brief: as §1

NCI-H1793 = system: NCI-H1793
Method in brief: as §1

NCI-H1915 = system: NCI-H1915
Method in brief: as §1

NCI-H1944 = system: NCI-H1944
Method in brief: as §1

NCI-H2085 = system: NCI-H2085
Method in brief: as §1

NCI-H2087 = system: NCI-H2087
Method in brief: as §1

NCI-H2228 = system: NCI-H2228
Method in brief: as §1

NCI-H2342 = system: NCI-H2342
Method in brief: as §1

NCI-H2347 = system: NCI-H2347
Method in brief: as §1

NCI-H522 = system: NCI-H522
Method in brief: as §1

NCI-H661 = system: NCI-H661
Method in brief: as §1

PC-3 [JPC-3] = system: PC-3 [JPC-3]
Method in brief: as §1

SK-LU-1 = system: SK-LU-1
Method in brief: as §1

## COCC1(CO)C(=O)C2CCN1CC2 (stereo unspecified) [PRIMA-1MET] + CC(=O)Nc1cccc(-n2c(=O)n(C3CC3)c(=O)c3c(Nc4ccc(I)cc4F)n(C)c(=O)c(C)c32)c1 [Trametinib] (partner 0.02 µM)
CAL-12T; first compound 0.2 µM
  relative viability: 0.274
CAL-12T; first compound 0.6325 µM
  relative viability: 0.319
CAL-12T; first compound 2 µM
  relative viability: 0.313
CAL-12T; first compound 6.325 µM
  relative viability: 0.235
CAL-12T; first compound 20 µM
  relative viability: 0.15
COR-L 105; first compound 0.2 µM
  relative viability: 0.464
COR-L 105; first compound 0.6325 µM
  relative viability: 0.421
COR-L 105; first compound 2 µM
  relative viability: 0.378
COR-L 105; first compound 6.325 µM
  relative viability: 0.438
COR-L 105; first compound 20 µM
  relative viability: 0.108
EMC-BAC-2; first compound 0.2 µM
  relative viability: 0.637
EMC-BAC-2; first compound 0.6325 µM
  relative viability: 0.904
EMC-BAC-2; first compound 2 µM
  relative viability: 0.907
EMC-BAC-2; first compound 6.325 µM
  relative viability: 0.734
EMC-BAC-2; first compound 20 µM
  relative viability: 0.91
H3255; first compound 0.2 µM
  relative viability: 0.51
H3255; first compound 0.6325 µM
  relative viability: 0.625
H3255; first compound 2 µM
  relative viability: 0.57
H3255; first compound 6.325 µM
  relative viability: 0.575
H3255; first compound 20 µM
  relative viability: 0.55
LC-2-ad; first compound 0.2 µM
  relative viability: 0.82
LC-2-ad; first compound 0.6325 µM
  relative viability: 0.914
LC-2-ad; first compound 2 µM
  relative viability: 0.924
LC-2-ad; first compound 6.325 µM
  relative viability: 0.878
LC-2-ad; first compound 20 µM
  relative viability: 0.905
LK-2; first compound 0.2 µM
  relative viability: 0.477
LK-2; first compound 0.6325 µM
  relative viability: 0.766
LK-2; first compound 2 µM
  relative viability: 0.357
LK-2; first compound 6.325 µM
  relative viability: 0.455
LK-2; first compound 20 µM
  relative viability: 0.199
NCI-H1395; first compound 0.2 µM
  relative viability: 1.14
NCI-H1395; first compound 2 µM
  relative viability: 0.979
NCI-H1395; first compound 6.325 µM
  relative viability: 1.02
NCI-H1395; first compound 20 µM
  relative viability: 1.05
NCI-H1437; first compound 0.2 µM
  relative viability: 0.631
NCI-H1437; first compound 0.6325 µM
  relative viability: 0.525
NCI-H1437; first compound 2 µM
  relative viability: 0.449
NCI-H1437; first compound 6.325 µM
  relative viability: 0.546
NCI-H1437; first compound 20 µM
  relative viability: 0.479
NCI-H1651; first compound 0.2 µM
  relative viability: 0.826
NCI-H1651; first compound 0.6325 µM
  relative viability: 0.562
NCI-H1651; first compound 2 µM
  relative viability: 0.842
NCI-H1651; first compound 6.325 µM
  relative viability: 0.849
NCI-H1651; first compound 20 µM
  relative viability: 0.848
NCI-H1755; first compound 0.2 µM
  relative viability: 0.676
NCI-H1755; first compound 0.6325 µM
  relative viability: 0.729
NCI-H1755; first compound 2 µM
  relative viability: 0.644
NCI-H1755; first compound 6.325 µM
  relative viability: 0.745
NCI-H1755; first compound 20 µM
  relative viability: 0.762
NCI-H1793; first compound 0.2 µM
  relative viability: 0.365
NCI-H1793; first compound 0.6325 µM
  relative viability: 0.41
NCI-H1793; first compound 6.325 µM
  relative viability: 0.361
NCI-H1793; first compound 20 µM
  relative viability: 0.517
NCI-H1915; first compound 0.2 µM
  relative viability: 0.166
NCI-H1915; first compound 0.6325 µM
  relative viability: 0.246
NCI-H1915; first compound 2 µM
  relative viability: 0.248
NCI-H1915; first compound 6.325 µM
  relative viability: 0.218
NCI-H1915; first compound 20 µM
  relative viability: 0.31
NCI-H1944; first compound 0.2 µM
  relative viability: 0.366
NCI-H1944; first compound 0.6325 µM
  relative viability: 0.349
NCI-H1944; first compound 2 µM
  relative viability: 0.407
NCI-H1944; first compound 6.325 µM
  relative viability: 0.387
NCI-H1944; first compound 20 µM
  relative viability: 0.425
NCI-H2085; first compound 0.2 µM
  relative viability: 0.618
NCI-H2085; first compound 0.6325 µM
  relative viability: 0.61
NCI-H2085; first compound 2 µM
  relative viability: 0.508
NCI-H2085; first compound 6.325 µM
  relative viability: 0.427
NCI-H2085; first compound 20 µM
  relative viability: 0.141
NCI-H2087; first compound 0.6325 µM
  relative viability: 0.185
NCI-H2087; first compound 2 µM
  relative viability: 0.19
NCI-H2087; first compound 6.325 µM
  relative viability: 0.168
NCI-H2087; first compound 20 µM
  relative viability: 0.117
NCI-H2228; first compound 0.2 µM
  relative viability: 0.197
NCI-H2228; first compound 0.6325 µM
  relative viability: 0.371
NCI-H2228; first compound 2 µM
  relative viability: 0.822
NCI-H2228; first compound 6.325 µM
  relative viability: 0.335
NCI-H2228; first compound 20 µM
  relative viability: 0.0574
NCI-H2342; first compound 0.2 µM
  relative viability: 0.77
NCI-H2342; first compound 0.6325 µM
  relative viability: 1.06
NCI-H2342; first compound 6.325 µM
  relative viability: 0.755
NCI-H2342; first compound 20 µM
  relative viability: 0.67
NCI-H2347; first compound 0.2 µM
  relative viability: 0.286
NCI-H2347; first compound 0.6325 µM
  relative viability: 0.303
NCI-H2347; first compound 2 µM
  relative viability: 0.255
NCI-H2347; first compound 6.325 µM
  relative viability: 0.225
NCI-H2347; first compound 20 µM
  relative viability: 0.24
NCI-H522; first compound 0.2 µM
  relative viability: 0.655
NCI-H522; first compound 0.6325 µM
  relative viability: 0.673
NCI-H522; first compound 2 µM
  relative viability: 0.528
NCI-H522; first compound 6.325 µM
  relative viability: 0.717
NCI-H522; first compound 20 µM
  relative viability: 0.121
NCI-H661; first compound 0.2 µM
  relative viability: 0.506
NCI-H661; first compound 0.6325 µM
  relative viability: 0.492
NCI-H661; first compound 2 µM
  relative viability: 0.547
NCI-H661; first compound 6.325 µM
  relative viability: 0.552
NCI-H661; first compound 20 µM
  relative viability: 0.503
PC-3 [JPC-3]; first compound 0.2 µM
  relative viability: 0.757
PC-3 [JPC-3]; first compound 0.6325 µM
  relative viability: 0.667
PC-3 [JPC-3]; first compound 2 µM
  relative viability: 0.733
PC-3 [JPC-3]; first compound 6.325 µM
  relative viability: 0.696
PC-3 [JPC-3]; first compound 20 µM
  relative viability: 0.614
SK-LU-1; first compound 0.2 µM
  relative viability: 0.308
SK-LU-1; first compound 0.6325 µM
  relative viability: 0.488
SK-LU-1; first compound 2 µM
  relative viability: 0.35
SK-LU-1; first compound 6.325 µM
  relative viability: 0.382
SK-LU-1; first compound 20 µM
  relative viability: 0.528
